According to US7456179B2, “Methods of treating ischemic related conditions” (priority 2003, dated 2008):
“Also recorded” adds a separate entry of the source. Where two headings read alike, the source gives them in different places.

Tests used:
Primary cortical neurons [1] = test: H2O2-induced oxidative stress (150 μM), MTS assay, comparison with known neuroprotectants; assay type: cell-based, rat; details: 24 h pre-treatment, then harsh H2O2 treatment (150 μM)
Protocol: Primary cortical neurons were isolated from a 17 day old rat embryonic brain and seeded on 96-well plate at 50,000 cells/well in regular neurobasal medium for 2-3 week. Twice, half the amount of medium was replaced with fresh neurobasal medium containing no antioxidants. […] Other known neuroprotectants were dissolved in the proper solvent and diluted into final concentration as indicated. […] Each assay was performed in triplicate. After 24 hours, the cultures were evaluated for viability and mitochondrial function using a standard MTS Assay (Promega). The manufacturer's protocols were followed. Experiments were carried out following the procedures described in the Study Design described above. PAN-811 was dissolved in EtOH at 1 mg/ml (˜5 mM), and further diluted in neurobasal medium to final concentration at 0.1 μM, 1 μM, and 10 μM. Lipoic acid was dissolved in EtOH at concentration 240 mM, and further diluted in the neurobasal medium to final concentration at 10 uM, 25 uM, 50 uM and 100 uM. Vitamin E dissolved in EtOH at concentration 100 mM, and further diluted in the neurobasal medium to final concentration at 50 uM, 100 uM, 200 uM and 400 uM. Ginkgo Biloba was dissolved in dH2O at concentration 6 mg/ml, and further diluted in the neurobasal medium to final concentration at 2.5 ug/ml, 5 ug/ml, 25 ug/ml, 250 ug/ml. At the end of the treatment, the medium was replaced with 100 μl fresh pre-warmed neurobasal medium plus B27 (-AO). The plates were returned to the incubator at 37° C. with 5% CO2 for one hour. Subsequently 20 μl MTS reagent was added to each well and plates were incubated at 37° C. with 5% CO2 for an additional two hours. The absorbance at 490 nm for each well was recorded with the BioRad plate reader (Model 550). Wells containing medium alone were used as blanks. Each data point is the average of three separate assay wells. […] Two weeks old primary cultures were used for this set of study. Please see FIG. 1 for results.

Cortical neurons [2] = details: for protection from neuronal cell death (morphology): 5 μM, hypoxia, FIG. 4
Protocol: (§1) Experiments were performed in a 96-well plate format. Cortical neurons were seeded at a density of 50,000 cells/well on poly-D-lysine coated surface, and cultured in serum-free medium (NB plus B27 supplement) to obtain cultures high-enriched for neurons. Neurons were cultured for over 14 d.i.v. to increase cell susceptibility to excitatory amino acids (Jiang et al., 2001). Six replicate wells were treated as a group to facilitate assay quantitation.
(§2) To mimic the cerebral environments of a stroke, we established 3 in vitro model systems. The extreme H/H model (0.4 mM glucose) is a mimic of the environment in the central core of an infarct; the mild H/H model (1.63 mM glucose) is a mimic of the environment in the penumbra during MCAO; and the hypoxia only model (neurons in normal in vitro glucose concentration—25 mM) is a mimic of the environment in the penumbra after reperfusion since the possible cell death after reperfusion is predominantly a result of the hypoxic effect rather then energy failure.
(§3) Hypoxia/hypoglycemia was obtained by reducing glucose concentration down to 0.4 mM and 1.63 mM for extreme H/H and mild H/H respectively. BSS (116.0 mM NaCl, 5.4 mM KCl, 0.8 mM MgSO4.7H2O, 1.0 mM NaH2PO4, 1.8 mM CaCl2.2H2O, 26.2 mM NaHCO3, and 0.01 mM Glycine) or BSS with 25 mM glucose were de-gassed for 5 minutes prior to use. Culture medium in the plates for hypoxia was replaced with BSS or BSS with glucose. Meanwhile, culture medium in the plates for normoxia was replaced with non de-gassed BSS or BSS with glucose. Cells were committed to hypoxic conditions by transferring the plates into a sealed container (Modular Incubator Chamber-101TM, Billups-Rothenberg, Inc.), applying a vacuum for 20 minutes to remove O2 or other gases from the culture medium, and then refilling the chamber with 5% CO2 and 95% N2 at a pressure of 30 psi for 1 minute. The level of O2 in the chamber was determined to be zero with an O2 indicator (FYRITE Gas Analyzer, Bacharach, Inc.). Culture plates were maintained in the chamber for 6 hours. As an experimental control, duplicate culture plates were maintained under normal culture condition (5% CO2 and 95% ambient air) for the same duration. After a 6-hour treatment plates were removed from the chamber and the medium in both the hypoxic and normoxic cultures was replaced with a termination solution (DMEM supplemented with 1× sodium pyruvate, 10.0 mM HEPES, and 1×N2 supplement) containing 25 mM glucose and cultured in 5% CO2 and 95% ambient air conditions. […] MK801 was utilized as a positive control. Mitochondrial function and cell death were evaluated at 24 or 48 hours post H/H insult with the MTS and LDH analyses (see below).
Treatment with drug was continued during and subsequent to a 24-hour period of hypoxia. Cellular morphology and function (MTS and LDH assays) were measured 24 or 48 hours subsequent to the hypoxic insult.
(§4) The MTS assay is a colorimetric assay that measures the mitochondrial function in metabolically active cells. This measurement indirectly reflects cell viability. […] 20 μl of MTS reagent (Promega) are added to each well of the 96 well assay plates containing the samples in 100 μl of culture medium. The plate is then incubated in a humidified, 5% CO2 atmosphere at 37° C. for 1-2 hours until the color is fully developed. The absorbance at 490 nm was recorded using a Bio-Rad 96 well plate reader.
Lactate dehydrogenase (LDH) assay is based on the reduction of NAD by the action of LDH.

[3] = Solubility of PAN-811 in solvents; details: PEG-300/EtOH (70%/30%) versus EtOH
Protocol: PAN-811 was dissolved in either EtOH or DMSO at 1 mg/ml (˜5 mM), in PEG-300/EtOH (70%/30%) at 5 mg/ml (˜25 mM), and further diluted in medium to final concentration at 1 μM, 5 μM, 20 μM and 50 μM. […] Equal volume of solvents (EtOH, DMSO, and PEG-300/EtOH) was added to cells to test the solvent effects on the assay.

[4] = tested on: enriched neuronal cultures (cerebellar tissue); test: In vitro models of excitotoxicity (H/H, glutamate, staurosporine, veratridine), MTT assay; details: MTT 24 hrs after insult
Protocol: Neuronal culture. Enriched neuronal cultures were prepared from 15-day-old Sprague-Dawley rat embryos. Using aseptic techniques, the rat embryos were removed from the uterus and placed in sterile neuronal culture medium. Using a dissecting microscope, the brain tissue was removed from each embryo, with care taken to discard the meninges and blood vessels. […] Cells were dissociated by trituration of the tissue and were plated at a density of 5×10^5 cells/well onto 48-well culture plates precoated with poly(L-lysine). Cultures were maintained in a medium containing equal parts of Eagle's basal medium (without glutamine) and Ham's F-12k medium supplemented with 10% heat-inactivated horse serum, 10% fetal bovine serum, 600 μg/ml glucose, 100 μg/ml glutamine, 50 U/ml penicillin, and 50 μg/ml streptomycin. After 48 h, 10 μM cytosine arabinoside was added to inhibit non-neuronal cell division. Cells were used in experiments after 7 days in culture.
Four in vitro models of excitotoxicity were studied. Cells were either exposed to H/H conditions for 3 hrs or treated for 45 min with either glutamate (100 μM), staurosporine (1 μM) or veratridine (10 μM). All cells were cotreated with or without PAN-811 (10 μM) in Locke's solution. At the conclusion of the respective excitotoxic exposures, the condition medium (original) was replaced. H/H was induced by incubating the cells in a humidified airtight chamber saturated with 95% nitrogen, 5% CO2 gas for 3 hrs. in Locke's solution without added glucose.
24 hrs. after the excitotoxic insult cell viability assessments were made. Cell damage was quantitatively assessed using a tetrazolium salt colorimetric assay with 3-(4,5-dimethylthiazol-2-yl)-2,5-diphenyltetrazolium (MTT; Sigma Chemical Co., St. Louis, Mo.). Briefly, the dye was added to each well (final concentration, 1.5 mg/ml), cells were incubated with MTT-acidified isopropanol (0.1 N HCl in isopropanol), and the absorbance intensity (540 nm) of each sample was measured in a 96-well plate reader. Values are expressed relative to vehicle-treated control cells that were maintained on each plate, and the percentage change in cell viability was calculated.

[5] = tested on: male Sprague-Dawley rats, MCAO
Cortical neurons [6] = details: for protection from mild H/H: pre-treatment 24 h, H/H 6 h
Protocol: as §1, §2, §3, §4
Lactate dehydrogenase (LDH) assay is based on the reduction of NAD by the action of LDH. The resulting reduced NAD (NADH) is utilized in the stoichiometric conversion of a tetrazolium dye. If cell-free aliquots of medium from cultures given different treatments are assayed, then the amount of LDH activity can be used as an indicator of relative cell death as well as a function of membrane integrity. A 50 μl aliquot of culture medium from a well in tested 96-well plate is transferred into a well in unused plate and supplemented with 25 μl of equally-mixed Substrate, Enzyme and Dye Solutions (Sigma).

Primary cortical neurons [7] = test: ROS generation, CM-H2DCFDA / c-DCF fluorescence; assay type: cell-based, rat; details: at 10 μM
Protocol: Primary cortical neurons were isolated from a 17 day old rat embryonic brain and seeded in 96-well plates at 50,000 cells/well in regular neurobasal medium for 2-3 weeks. Twice, half the amount of medium was replaced with fresh neurobasal medium without antioxidants. […] Untreated cells loaded with the dye were used as controls to calculate the c-DCF fluorescence change. Each assay was performed in triplicate. Experiments were carried out following the procedures described in the Study Design described above. The c-DCF fluorescence at 485/520 nm (Ex/Em) for each well was recorded with the BMG polar star plate reader. Wells containing cells without dye were used as blanks. Each data point is the average of three separate assay wells. Untreated cells loaded with the dye were used as a control to calculate the c-DCF fluorescence change. Two weeks old primary cultures were used for the study.

Primary cortical neurons [8] = test: H2O2-induced oxidative stress (60-70 μM), MTS assay; assay type: cell-based, rat; details: 1-10 μM, 24 h pre-treatment, then 60-70 μM H2O2, MTS
Protocol: Primary cortical neurons were isolated from a 17 day old rat embryonic brain and seeded on 96-well plate at 50,000 cells/well in regular neurobasal medium for 2-3 week. Twice, half amount of medium was replaced with fresh neurobasal medium containing no antioxidants. […] Each assay was performed in triplicate. […] After 24 hours, the cultures were evaluated for viability and mitochondrial function using a standard MTS Assay (Promega). The manufacturer's protocols were followed. Experiments were carried out following the procedures described in the study design. At the end of the treatment, all treatments and medium were replaced with 100 μl fresh pre-warmed neurobasal medium plus B27 (-AO). The plates were put back into the incubator at 37° C. with 5% CO2 for one hour, then 20 μl MTS reagent was added to each well and plates were incubated at 37° C. with 5% CO2 for an additional two hours. The absorbance at 490 nm for each well was recorded with the BioRad plate reader (Model 550). Wells containing medium alone well was used as blanks. Each data point is the average of three separate assay wells. […] Three weeks old primary cultures were used for this set of study. Please see FIG. 10 for results. Experiments were carried out following the same procedures as experiment 1.

[9] = tested on: enriched neuronal cultures (cerebellar tissue); test: Neurotoxicity of PAN-811, MTT assay; details: 24 hrs
Protocol: Neuronal culture. Enriched neuronal cultures were prepared from 15-day-old Sprague-Dawley rat embryos. Using aseptic techniques, the rat embryos were removed from the uterus and placed in sterile neuronal culture medium. Using a dissecting microscope, the brain tissue was removed from each embryo, with care taken to discard the meninges and blood vessels. […] Cells were dissociated by trituration of the tissue and were plated at a density of 5×10^5 cells/well onto 48-well culture plates precoated with poly(L-lysine). […]
3.3.1.2 Neurotoxicity of PAN-811. […] Cell viability was determined in the MTT assay.
3.1.3.4 MTT Assay. […] Cell damage was quantitatively assessed using a tetrazolium salt colorimetric assay with 3-(4,5-dimethylthiazol-2-yl)-2,5-diphenyltetrazolium (MTT; Sigma Chemical Co., St. Louis, Mo.). Briefly, the dye was added to each well (final concentration, 1.5 mg/ml), cells were incubated with MTT-acidified isopropanol (0.1 N HCl in isopropanol), and the absorbance intensity (540 nm) of each sample was measured in a 96-well plate reader. Values are expressed relative to vehicle-treated control cells that were maintained on each plate, and the percentage change in cell viability was calculated.

Cortical neurons [10] = test: Extreme hypoxia/hypoglycemia (H/H) model (0.4 mM glucose)
Protocol: as §1
To mimic the cerebral environments of a stroke, we established 3 in vitro model systems. […]
Hypoxia/hypoglycemia was obtained by reducing glucose concentration down to 0.4 mM and 1.63 mM for extreme H/H and mild H/H respectively. […] The level of O2 in the chamber was determined to be zero with an O2 indicator (FYRITE Gas Analyzer, Bacharach, Inc.). […] Mitochondrial function and cell death were evaluated at 24 or 48 hours post H/H insult with the MTS and LDH analyses (see below).
The MTS assay is a colorimetric assay that measures the mitochondrial function in metabolically active cells. […] The absorbance at 490 nm was recorded using a Bio-Rad 96 well plate reader. […]

Compound: O=C(O)CCCC[C@@H]1CCSS1 (racemic) [Lipoic acid, reference compound]
- neuroprotective capacity (Primary cortical neurons [1]; known neuroprotectants): minimal neuroprotective capacity

Compound: C[C@]12N[C@H](Cc3ccccc31)c1ccccc12 [MK801, reference compound]
- protection from neuronal cell death (morphology) (Cortical neurons [2]): efficient protection from neuronal cell death

Compound: NC(=S)N/N=C/c1ncccc1N [PAN-811, 3-aminopyridine-2-carboxaldehyde thiosemicarbazone]
- solubility [3]: better solubility in PEG-300/EtOH comparing to EtOH alone
- protection from damage by staurosporine ([4]; 10 μM PAN-811, 1 μM staurosporine 45 min): ~47%
- protection from damage by veratridine ([4]; 10 μM PAN-811, 10 μM veratridine 45 min): ~39%
- protection from damage by glutamate ([4]; 10 μM PAN-811, 100 μM glutamate 45 min): ~75%
- protection from damage by hypoxia/hypoglycemia ([4]; 10 μM PAN-811, 3 hour H/H): 92%
- range of infarct volume ([5]; 1 mg/kg IV 10 minutes prior to 2 h MCAO, 24 hours after surgery): 42.36-387.08 mm^3
- mean infarct volume ([5]; 1 mg/kg IV 10 minutes prior to 2 h MCAO, 24 hours after surgery, n 14): 225.85 mm^3
- % protection (reduction in average infarct volume vs vehicle) ([5]; 1 mg/kg IV 10 minutes prior to MCAO, p<0.05): 23%
- rats that died (of 7 deaths from severe stroke or SAH) ([5]; 1 mg/kg IV, 6 of the 7 deaths were vehicle rats): 1 rat
- tolerability / toxicity ([5]; rat, in vivo): well tolerated and relatively non-toxic
- protection from mild H/H (Cortical neurons [6]; 2 μM, Apr. 17, 2003, culture age 13 days, 48 h post H/H): 100% protected
- protection from mild H/H (Cortical neurons [6]; 2 μM, Jul. 9, 2003, culture age 13 days, 20 h post H/H): 100% protected
- protection from mild H/H (Cortical neurons [6]; 2 μM, May 2, 2003, culture age 22 days, 24 h post H/H): 100% protected
- protection from mild H/H (Cortical neurons [6]; 2 μM, May 8, 2003, culture age 42 days, 24 h post H/H): 100% protected
- protection from H/H-induced mitochondria dysfunction and neuronal cell death (Cortical neurons [6]; 5 μM, 24 hours before and during 6-hour H/H, 15-day culture, MTS and LDH 17 hours post): completely protected
- protection from mild H/H (Cortical neurons [6]; 5 μM, Jul. 25, 2003, culture age 15 days, 24 h post H/H, test range started from 5 μM): 100% protected
- protection from mild H/H (Cortical neurons [6]; 10 μM, Jul. 13, 2003, culture age 15 days, 24 h post H/H, test range started from 5 μM): 100% protected
- protection from mild H/H induced neurotoxicity (Cortical neurons [6]; at 2 μM): completely protected
- protection from neuronal cell death (LDH) (Cortical neurons [6]; treatment 24 h before 6-hour H/H only, LDH 48 hours after H/H): marginally
- reduction of the basal level of ROS generation (Primary cortical neurons [7]): ~50%
- reduction of H2O2-induced ROS generation (Primary cortical neurons [7]; 1 h, then 300 μM H2O2 for 2 hours): ~30%
- neuroprotective capacity (Primary cortical neurons [1]; PAN-811 at 1-10 μM): good neuroprotective capacity; also recorded: significant neuroprotection
- block of neuronal cell death and mitochondrial dysfunction (Cortical neurons [2]; 2 μM, 24 hours prior to, during and subsequent to 24-hour hypoxia): completely blocking neuronal cell death and mitochondrial dysfunction
- block of hypoxia-induced cell death (Cortical neurons [2]; 2 μM, 48 h prior to, during 24-hour hypoxia and 48 h subsequent): completely blocked the cell death
- protection from neuronal cell death (morphology) (Cortical neurons [2]): efficient protection from neuronal cell death
- protection from sole hypoxia-induced neurotoxicity (Cortical neurons [2]; at 2 μM): completely protected
- neuroprotective capacity (Primary cortical neurons [8]): good neuroprotective capacity
- neurotoxicity ([9]; concentrations up to 100 μM): only slight toxicity
- maximal toxicity ([9]; highest concentration tested (100 μM)): 7.8%
- block of extreme H/H-induced neuronal cell death (Cortical neurons [10]; at 100 μM): only partially blocked
- protection from neuronal cell death (Cortical neurons [10]; at ≦50 μM, extreme H/H (data not shown)): did not protect neuronal cell death

Compound: Vitamin E [reference compound]
- neuroprotective capacity (Primary cortical neurons [1]; known neuroprotectants): minimal neuroprotective capacity
